In test [1] the target is EGFR (T790M, L858R) (h) (Homo sapiens (Human), UniProt P00533, L858R/T790M). In words: Kinase assay, single dose inhibition (Millipore, 33P-ATP filter binding). The class given is biochemical. The note with it: 0.1 μM test compound, 10 μM ATP; remaining activity relative to DMSO control = 100%.
Experimental: (§1) Assay conditions included 10 μM ATP and 100 nM test compounds.
(§2) All reactions are initiated by the addition of the MgATP mix. After incubation for 40 minutes at room temperature, the reaction is stopped by the addition of 3% phosphoric acid solution. 10 μL of the reaction is then spotted onto a P30 filtermat and washed three times for 5 minutes in 75 mM phosphoric acid and once in methanol prior to drying and scintillation counting. This assay is performed by Millipore. The experiment is carried out in duplicate. The value for the control sample (DMSO) was set to 100%, and the values for the compound-treated samples were expressed as activity relative to the control sample.
In test [2] the target is EGFR (T790M) (h) (Homo sapiens (Human), UniProt P00533, T790M). The description is as above. The class given is biochemical. Conditions: 0.1 μM test compound, 10 μM ATP; remaining activity relative to DMSO control = 100%.
Experimental: as §1, §2
Test [3] deals with EGFR (L858R) (h) (Homo sapiens (Human), UniProt P00533, L858R). The test is described as above. The class given is biochemical. Conditions: 0.1 μM test compound, 10 μM ATP; remaining activity relative to DMSO control = 100%.
Test [4] concerns the target EGFR (h) (Homo sapiens (Human), UniProt P00533). The description is as above. The class given is biochemical. The note with it: 0.1 μM test compound, 10 μM ATP; remaining activity relative to DMSO control = 100%.
Experimental: as §1, §2
For test [5], the system named is HCC827 (EGFR Del) NSCLC cells. Nature of the test: Cell proliferation assay (MTS cell viability). The class given is cell-based. The note with it: Homo sapiens, 72 h; HCC827 cells, 3 days of exposure, MTS.
Experimental: Effects of test compounds on in vitro proliferation were measured by MTS cell viability assay.
Prepare test compounds in each well with a final medium volume of 200 μl;
Incubate for 3 days of exposure;
Prepare reagents following the instructions in the Cell Proliferation Assay kit (Promega);
Change to serum-free medium with a final volume of 100 l/well. Prepare a set of wells with medium only for background subtraction;
Add 20 μl MTS solution containing PMS to each well (final concentration of MTS will be 0.33 mg/ml);
Incubate 1 to 4 hours at 37° C. in a humidified, 5% CO2 atmosphere.
Record absorbance at 490 nm using VICTOR™ X5 plate reader (PerkinElmer).
All experimental points were set up in three wells and all experiments were repeated at least three times.
Test [6] relates to H1975 (EGFR L858R/T790M) NSCLC cells. Nature of the test: Cell proliferation assay (MTS cell viability). The class given is cell-based. The note with it: Homo sapiens, NCI-H1975, 72 h; H1975 cells, 3 days of exposure, MTS.
Test [7] has as its target ALK (h) (Homo sapiens (Human), UniProt Q9UM73). In words: Kinase assay, single dose inhibition (Millipore, 33P-ATP filter binding). The class given is biochemical. Conditions: 0.1 μM test compound, 10 μM ATP, remaining activity relative to DMSO control = 100%.

EGFR (h), sequence (P00533 25-1210): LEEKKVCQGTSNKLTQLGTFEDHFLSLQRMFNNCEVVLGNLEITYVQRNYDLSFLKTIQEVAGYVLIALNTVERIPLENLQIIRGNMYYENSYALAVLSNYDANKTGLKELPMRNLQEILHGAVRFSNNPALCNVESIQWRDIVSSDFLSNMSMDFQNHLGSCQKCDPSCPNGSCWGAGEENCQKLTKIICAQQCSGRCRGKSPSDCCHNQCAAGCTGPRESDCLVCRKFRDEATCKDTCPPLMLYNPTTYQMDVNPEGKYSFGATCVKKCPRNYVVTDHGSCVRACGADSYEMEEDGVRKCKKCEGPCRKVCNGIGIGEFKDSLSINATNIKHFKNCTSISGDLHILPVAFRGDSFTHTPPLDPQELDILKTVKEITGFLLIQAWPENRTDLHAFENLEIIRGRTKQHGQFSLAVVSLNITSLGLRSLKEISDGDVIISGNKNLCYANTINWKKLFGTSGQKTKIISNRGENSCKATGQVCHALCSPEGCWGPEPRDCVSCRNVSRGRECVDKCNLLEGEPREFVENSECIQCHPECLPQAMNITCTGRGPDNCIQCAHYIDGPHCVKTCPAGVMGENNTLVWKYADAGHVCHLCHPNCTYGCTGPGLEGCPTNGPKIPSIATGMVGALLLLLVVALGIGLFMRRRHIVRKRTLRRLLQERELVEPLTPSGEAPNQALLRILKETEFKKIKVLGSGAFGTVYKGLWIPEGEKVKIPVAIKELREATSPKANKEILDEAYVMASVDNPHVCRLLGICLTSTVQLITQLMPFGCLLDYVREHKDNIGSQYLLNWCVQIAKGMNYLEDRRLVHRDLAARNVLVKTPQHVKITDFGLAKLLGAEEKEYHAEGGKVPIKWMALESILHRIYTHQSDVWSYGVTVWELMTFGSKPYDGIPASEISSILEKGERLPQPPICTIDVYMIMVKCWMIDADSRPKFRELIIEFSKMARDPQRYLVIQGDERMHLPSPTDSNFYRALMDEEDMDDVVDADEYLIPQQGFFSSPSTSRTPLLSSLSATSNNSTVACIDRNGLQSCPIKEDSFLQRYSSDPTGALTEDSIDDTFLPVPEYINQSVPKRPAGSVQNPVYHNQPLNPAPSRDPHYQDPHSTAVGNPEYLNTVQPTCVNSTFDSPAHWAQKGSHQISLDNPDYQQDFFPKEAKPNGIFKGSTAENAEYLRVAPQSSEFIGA
EGFR (L858R) (h), sequence (P00533 25-1210 L858R): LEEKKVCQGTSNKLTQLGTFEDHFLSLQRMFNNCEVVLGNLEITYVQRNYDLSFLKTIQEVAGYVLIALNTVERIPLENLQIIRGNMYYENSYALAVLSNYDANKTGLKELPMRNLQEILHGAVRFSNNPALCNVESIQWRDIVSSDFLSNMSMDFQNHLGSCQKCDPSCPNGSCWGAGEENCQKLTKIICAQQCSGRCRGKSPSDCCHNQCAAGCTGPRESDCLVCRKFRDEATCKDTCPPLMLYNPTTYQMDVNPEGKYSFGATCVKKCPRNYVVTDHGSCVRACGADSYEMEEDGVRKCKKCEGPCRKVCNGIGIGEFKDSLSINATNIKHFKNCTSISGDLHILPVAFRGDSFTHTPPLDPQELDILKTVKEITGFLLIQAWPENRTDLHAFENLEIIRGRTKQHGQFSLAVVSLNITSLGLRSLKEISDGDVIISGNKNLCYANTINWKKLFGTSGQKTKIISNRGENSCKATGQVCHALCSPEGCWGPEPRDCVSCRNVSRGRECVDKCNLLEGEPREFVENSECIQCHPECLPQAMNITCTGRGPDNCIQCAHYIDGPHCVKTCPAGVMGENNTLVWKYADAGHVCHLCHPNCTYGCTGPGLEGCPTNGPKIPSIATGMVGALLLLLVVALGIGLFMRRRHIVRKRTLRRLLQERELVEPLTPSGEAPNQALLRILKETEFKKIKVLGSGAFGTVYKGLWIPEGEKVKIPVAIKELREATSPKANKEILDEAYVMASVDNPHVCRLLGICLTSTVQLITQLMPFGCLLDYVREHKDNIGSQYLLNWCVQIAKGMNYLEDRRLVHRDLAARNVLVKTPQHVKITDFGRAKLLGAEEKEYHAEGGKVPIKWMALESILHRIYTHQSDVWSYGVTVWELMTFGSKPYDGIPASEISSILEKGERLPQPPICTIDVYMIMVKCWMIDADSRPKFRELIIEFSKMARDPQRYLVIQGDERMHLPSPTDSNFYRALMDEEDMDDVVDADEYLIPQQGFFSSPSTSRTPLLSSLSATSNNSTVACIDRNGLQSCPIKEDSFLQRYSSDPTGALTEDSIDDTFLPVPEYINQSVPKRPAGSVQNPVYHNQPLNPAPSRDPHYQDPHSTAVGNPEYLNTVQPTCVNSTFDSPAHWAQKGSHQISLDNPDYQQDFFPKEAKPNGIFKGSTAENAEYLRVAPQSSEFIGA
EGFR (T790M, L858R) (h), sequence (P00533 25-1210 T790M/L858R): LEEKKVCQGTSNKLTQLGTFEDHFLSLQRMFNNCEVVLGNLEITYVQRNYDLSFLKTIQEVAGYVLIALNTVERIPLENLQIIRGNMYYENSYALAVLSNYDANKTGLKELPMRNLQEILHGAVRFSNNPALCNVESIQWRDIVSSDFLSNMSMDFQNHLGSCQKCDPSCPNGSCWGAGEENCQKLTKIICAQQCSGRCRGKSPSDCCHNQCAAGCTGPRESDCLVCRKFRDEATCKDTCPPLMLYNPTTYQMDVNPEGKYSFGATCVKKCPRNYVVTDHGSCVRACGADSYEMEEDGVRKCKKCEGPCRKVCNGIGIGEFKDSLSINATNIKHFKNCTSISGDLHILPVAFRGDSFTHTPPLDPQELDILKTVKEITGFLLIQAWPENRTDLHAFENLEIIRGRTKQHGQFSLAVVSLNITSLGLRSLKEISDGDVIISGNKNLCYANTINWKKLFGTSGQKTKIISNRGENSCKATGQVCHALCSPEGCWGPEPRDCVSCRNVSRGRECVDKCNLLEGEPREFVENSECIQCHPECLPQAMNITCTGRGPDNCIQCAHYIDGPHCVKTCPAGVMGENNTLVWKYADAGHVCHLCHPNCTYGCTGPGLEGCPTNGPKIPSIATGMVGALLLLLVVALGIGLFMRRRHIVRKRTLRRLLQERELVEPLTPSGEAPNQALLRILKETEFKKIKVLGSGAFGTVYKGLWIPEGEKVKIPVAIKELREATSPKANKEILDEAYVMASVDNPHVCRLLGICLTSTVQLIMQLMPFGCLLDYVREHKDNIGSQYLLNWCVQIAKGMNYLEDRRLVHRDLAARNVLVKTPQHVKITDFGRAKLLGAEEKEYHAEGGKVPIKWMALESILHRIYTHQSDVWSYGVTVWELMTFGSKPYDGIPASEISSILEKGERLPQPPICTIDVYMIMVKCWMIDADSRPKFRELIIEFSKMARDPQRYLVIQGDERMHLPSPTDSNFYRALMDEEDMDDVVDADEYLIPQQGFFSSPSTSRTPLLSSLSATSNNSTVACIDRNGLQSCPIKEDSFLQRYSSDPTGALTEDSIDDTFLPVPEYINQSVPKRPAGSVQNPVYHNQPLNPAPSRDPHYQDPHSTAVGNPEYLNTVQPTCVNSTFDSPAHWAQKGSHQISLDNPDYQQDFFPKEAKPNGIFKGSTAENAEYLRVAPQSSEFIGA
EGFR (T790M) (h), sequence (P00533 25-1210 T790M): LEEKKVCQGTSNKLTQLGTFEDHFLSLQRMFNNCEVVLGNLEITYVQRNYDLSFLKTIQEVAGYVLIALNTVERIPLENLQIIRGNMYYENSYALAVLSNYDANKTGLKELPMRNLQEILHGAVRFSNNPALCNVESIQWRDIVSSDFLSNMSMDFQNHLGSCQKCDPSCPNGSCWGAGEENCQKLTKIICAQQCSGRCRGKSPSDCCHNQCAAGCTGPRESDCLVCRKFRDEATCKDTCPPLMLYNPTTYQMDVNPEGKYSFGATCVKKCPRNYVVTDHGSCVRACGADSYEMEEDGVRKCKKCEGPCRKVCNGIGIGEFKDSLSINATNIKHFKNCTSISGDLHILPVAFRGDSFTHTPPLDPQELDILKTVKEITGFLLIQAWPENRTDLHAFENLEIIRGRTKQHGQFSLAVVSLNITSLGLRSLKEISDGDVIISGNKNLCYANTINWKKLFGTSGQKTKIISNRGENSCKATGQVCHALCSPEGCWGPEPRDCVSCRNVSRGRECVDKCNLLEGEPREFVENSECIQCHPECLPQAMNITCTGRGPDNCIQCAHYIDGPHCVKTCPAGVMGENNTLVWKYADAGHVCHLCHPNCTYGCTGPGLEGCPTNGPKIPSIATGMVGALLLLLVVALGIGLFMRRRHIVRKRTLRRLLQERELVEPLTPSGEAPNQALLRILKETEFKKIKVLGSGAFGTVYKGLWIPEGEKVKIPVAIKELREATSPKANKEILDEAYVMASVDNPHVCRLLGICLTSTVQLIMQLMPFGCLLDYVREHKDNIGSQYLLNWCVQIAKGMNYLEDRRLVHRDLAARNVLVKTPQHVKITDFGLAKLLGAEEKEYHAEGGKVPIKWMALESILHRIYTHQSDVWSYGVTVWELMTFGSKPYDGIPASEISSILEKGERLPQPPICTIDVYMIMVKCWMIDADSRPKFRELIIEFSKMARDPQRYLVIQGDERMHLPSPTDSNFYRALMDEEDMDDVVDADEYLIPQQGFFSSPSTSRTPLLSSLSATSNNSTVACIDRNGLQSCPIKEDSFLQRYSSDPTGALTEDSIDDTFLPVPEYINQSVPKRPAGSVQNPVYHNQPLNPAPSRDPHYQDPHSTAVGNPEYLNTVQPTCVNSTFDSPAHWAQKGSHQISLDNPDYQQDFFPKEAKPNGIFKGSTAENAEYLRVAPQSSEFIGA

With `C=CC(=O)Nc1cccc(Nc2nc(Nc3ccc(N4CCN(C(C)=O)CC4)cc3OC)ncc2C(F)(F)F)c1` [CO-1686, reference compound], the “Activity (control) % EGFR (T790M, L858R) (h)” value in test [1] was 7%. Moreover, the “Activity (control) % EGFR (T790M) (h)” value in test [2] was 21%. In addition, the “Activity (control) % EGFR (L858R) (h)” value in test [3] stood at 97%. The “Activity (control) % EGFR (h)” value in test [4] is 92%.
With `CCOC(=O)C(=O)c1ccccc1Nc1nc(Nc2ccc(N3CCC(N(C)C)CC3)cc2OC)ncc1Cl` [Example 1, ethyl 2-(2-(5-chloro-2-(4-(4-(dimethylamino)piperidin-1-yl)-2-methoxyphenylamino)pyrimidin-4-ylamino)phenyl)-2-oxoacetate], the IC50 in test [5] and in test [6] was over 3000 nM in each case.
As for `COc1cc(N2CCC(N(C)C)CC2)ccc1Nc1ncc(Cl)c(Nc2ccccc2C(=O)C(=O)O)n1` [Example 2, 2-(2-(5-chloro-2-(4-(4-(dimethylamino)piperidin-1-yl)-2-methoxyphenylamino)pyrimidin-4-ylamino)phenyl)-2-oxoacetic acid], the 50% inhibitory concentration (IC50) in test [5] and in test [6] was over 3000 nM in each case.
Regarding `COc1cc(N2CCN(C)CC2)ccc1Nc1ncc(C(F)(F)F)c(Nc2ccccc2C(=O)C(N)=O)n1` [Example 10, 2-(2-((2-((2-methoxy-4-(4-methylpiperazin-1-yl)phenyl)amino)-5-(trifluoromethyl)pyrimidin-4-yl)amino)phenyl)-2-oxoacetamide], the IC50 in test [5] and in test [6] was over 3000 nM in each case.
Consider `COc1cc(N2CCC(N(C)C)CC2)ccc1Nc1ncc(C(F)(F)F)c(Nc2ccccc2C(=O)C(=O)O)n1` [Example 15, 2-(2-((2-((4-(4-(dimethylamino)piperidin-1-yl)-2-methoxyphenyl)amino)-5-(trifluoromethyl)pyrimidin-4-yl)amino)phenyl)-2-oxoacetic acid], for which the IC50 in test [5] and in test [6] was over 3000 nM each time.
As for `COc1cc(N2CCC(N(C)C)CC2)ccc1Nc1ncc(Cl)c(Nc2ccccc2C(=O)C(=O)N2CCOCC2)n1` [Example 18, 1-(2-((5-chloro-2-((4-(4-(dimethylamino)piperidin-1-yl)-2-methoxyphenyl)amino)pyrimidin-4-yl)amino)phenyl)-2-morpholinoethane-1,2-dione], the figures for the half-inhibitory concentration (IC50) in test [5] and in test [6] were over 3000 nM and 2860 nM, respectively.
As for `COc1cc(N2CCC(N(C)C)CC2)ccc1Nc1ncc(Cl)c(Nc2ccccc2C(=O)C(=O)NC2CNC2)n1` [Example 24, N-(azetidin-3-yl)-2-(2-((5-chloro-2-((4-(4-(dimethylamino)piperidin-1-yl)-2-methoxyphenyl)amino)pyrimidin-4-yl)amino)phenyl)-2-oxoacetamide], the IC50 in test [5] and in test [6] was over 3000 nM throughout.
With `COc1cc(N2CCC(N(C)C)CC2)ccc1Nc1ncc(Cl)c(Nc2ccccc2C(=O)C(=O)NC2CC2)n1` [Example 25, 2-(2-((5-chloro-2-((4-(4-(dimethylamino)piperidin-1-yl)-2-methoxyphenyl)amino)pyrimidin-4-yl)amino)phenyl)-N-cyclopropyl-2-oxoacetamide], the IC50 in test [5] and in test [6] was over 3000 nM throughout.
On to `C=C(CN1CCOCC1)C(=O)Nc1ccc(OC)c(Nc2ncc(Cl)c(Nc3ccccc3C(=O)C(=O)N(C)C)n2)c1` [Example 41, N-(3-(5-chloro-4-(2-(2-(dimethylamino)-2-oxoacetyl)phenylamino)pyrimidin-2-ylamino)-4-methoxyphenyl)-2-(morpholinomethyl)acrylamide], for which the “Activity (control) % EGFR (T790M, L858R) (h)” value in test [1] is on record as 3%. Moreover, the “Activity (control) % EGFR (T790M) (h)” value in test [2] was 2%. The same molecule gave a remaining activity at 0.1 µM in test [7] (40 min) of 21%. For the same molecule, the “Activity (control) % EGFR (L858R) (h)” value in test [3] is 39%. Also, in test [4], the “Activity (control) % EGFR (h)” value is recorded as 76%.
Turning to `COc1cc(N2CCOCC2)ccc1Nc1ncc(Cl)c(Nc2ccccc2C(=O)C(=O)N(C)C)n1` [Example 48, 2-(2-(5-chloro-2-(2-methoxy-4-morpholinophenylamino)pyrimidin-4-ylamino)phenyl)-N,N-dimethyl-2-oxoacetamide], the IC50 in test [5] came out at 1940 nM; in test [6] it was 1950 nM.
For the molecule `COc1cc(N2CCN(C)CC2)ccc1Nc1ncc(Cl)c(Nc2ccccc2C(=O)C(=O)NC2CC2)n1` [Example 49, 2-(2-(5-chloro-2-(2-methoxy-4-(4-methylpiperazin-1-yl)phenylamino)pyrimidin-4-ylamino)phenyl)-N-cyclopropyl-2-oxoacetamide], the IC50 in test [5] and in test [6] was over 3000 nM in each case.
`CCC(=O)N1CCN(c2ccc(Nc3ncc(Cl)c(Nc4ccccc4C(=O)C(=O)NC)n3)c(OC)c2)CC1` [Example 54, 2-(2-(5-chloro-2-(2-methoxy-4-(4-propionylpiperazin-1-yl)phenylamino)pyrimidin-4-ylamino)phenyl)-N-methyl-2-oxoacetamide]: the IC50 in test [5] and in test [6] was over 3000 nM in each case.
On to `C=CC(=O)N1CC(NC(=O)C(=O)c2ccccc2Nc2nc(Nc3ccc(N4CCN(C)CC4)cc3OC)ncc2Cl)C1` [Example 55, N-(1-acryloylazetidin-3-yl)-2-(2-(5-chloro-2-(2-methoxy-4-(4-methylpiperazin-1-yl)phenylamino)pyrimidin-4-ylamino)phenyl)-2-oxoacetamide], for which the IC50 in test [5] and in test [6] was over 3000 nM in each case.
Turning to `C=CC(=O)N1CCC(NC(=O)C(=O)c2ccccc2Nc2nc(Nc3ccc(N4CCN(C)CC4)cc3OC)ncc2Cl)CC1` [Example 56, N-(1-acryloylpiperidin-4-yl)-2-(2-(5-chloro-2-(2-methoxy-4-(4-methylpiperazin-1-yl)phenylamino)pyrimidin-4-ylamino)phenyl)-2-oxoacetamide], the IC50 in test [5] and in test [6] was over 3000 nM throughout.
Molecule `COc1ccc(NC(=O)C=C(C)C)cc1Nc1ncc(Cl)c(Nc2ccccc2C(=O)C(=O)N(C)C)n1` [Example 71, N-(3-(5-chloro-4-(2-(2-(dimethylamino)-2-oxoacetyl)phenylamino)pyrimidin-2-ylamino)-4-methoxyphenyl)-3-methylbut-2-enamide] registered an IC50 in test [6] of 990 nM.
As for `COc1ccc(NC(=O)/C=C/CN2CCCCC2)cc1Nc1ncc(Cl)c(Nc2ccccc2C(=O)C(=O)N(C)C)n1` [Example 72, (E)-N-(3-(5-chloro-4-(2-(2-(dimethylamino)-2-oxoacetyl)phenylamino)pyrimidin-2-ylamino)-4-methoxyphenyl)-4-(piperidin-1-yl)but-2-enamide], the “Activity (control) % EGFR (T790M, L858R) (h)” value in test [1] was found to be 9%. In addition, the “Activity (control) % EGFR (T790M) (h)” value in test [2] stood at 54%. Also, the “Activity (control) % ALK (h)” value in test [7] turned out to be 14%. In addition, the “Activity (control) % EGFR (L858R) (h)” value in test [3] came to 28%. Further, the “Activity (control) % EGFR (h)” value in test [4] was 102%.
In the same order, the values of `C=C(CN1CCCCC1)C(=O)Nc1ccc(OC)c(Nc2ncc(Cl)c(Nc3ccccc3C(=O)C(=O)N(C)C)n2)c1` [Example 73, N-(3-(5-chloro-4-(2-(2-(dimethylamino)-2-oxoactyl)phenylamino)pyrimidin-2-ylamino)-4-methoxyphenyl)-2-(piperidin-1-ylmethyl)acrylamide] are 3%, 3%, 17%, 37% and 67%.
In the same order, the values of `C=C(CN(C)C)C(=O)Nc1ccc(OC)c(Nc2ncc(Cl)c(Nc3ccccc3C(=O)C(=O)N(C)C)n2)c1` [Example 78, N-(3-(5-chloro-4-(2-(2-(dimethylamino)-2-oxoactyl)phenylamino)pyrimidin-2-ylamino)-4-methoxyphenyl)-2-((dimethylamino)methyl)acrylamide] are 3%, 2%, 36%, 37% and 68%.
On the same counts, the results for `COc1ccc(NC(=O)/C=C/CN2CCOCC2)cc1Nc1ncc(Cl)c(Nc2ccccc2C(=O)C(=O)N(C)C)n1` [Example 79, (E)-N-(3-(5-chloro-4-(2-(2-(dimethylamino)-2-oxoacetyl)phenylamino)pyrimidin-2-ylamino)-4-methoxyphenyl)-4-morpholinobut-2-enamide] are 2%, 16%, 7%, 25% and 92%.
In the case of `C=CC(=O)N1CCOc2ccc(Nc3ncc(Cl)c(Nc4ccccc4C(=O)C(=O)N(C)C)n3)cc21` [Example 87, 2-(2-(2-(4-acryloyl-3,4-dihydro-2H-benzo[b][1,4]oxazin-6-ylamino)-5-chloropyrimidin-4-ylamino)phenyl)-N,N-dimethyl-2-oxoacetamide], the “Activity (control) % ALK (h)” value in test [7] came out at 5%.
The same measure, in the same setting: the same measure for “N-(5-(5-chloro-4-(2-(2-(dimethylamino)-2-oxoactyl)phenylamino)pyrimidin-2-ylamino)-2-(2-(dimethylamino)ethoxy)phenyl)acrylamide [Example 115]”: 6%.

Source of the values: US10059688B2, “Protein tyrosine kinase modulators and methods of use” (BETTA PHARMACEUTICALS CO., LTD., priority 2013, dated 2018).
